# From article PMC9370283, “New Quinoxaline-Based Derivatives as PARP-1 Inhibitors: Design, Synthesis, Antiproliferative, and Computational Studies” (Molecules, 2022)
# How the values were obtained:
# WI-38 = assay: cytotoxicity against normal cells, MTT assay, WI-38; assay type: cell-based; settings: Homo sapiens, normal cell line, read-out: IC50 (mean ± SEM) WI-38
# Description: It has been reported that the frequency and severity of the side effects on normal healthy cells at therapeutic levels are deemed to be critical factors that distinguish different anticancer drugs from each other. […]
# to the wells designated as “Blank”. The amount of PARP-1 required for the assay was then calculated. The reaction was initiated by adding 20 µL of diluted PARP-1 en zy me to the wells designated “Positive Control” and “Test Inhibitor Control”. The strip wells were incubated at room temperature for 1 hou r. The strip wells were then wash ed three times with 200 µL of PBST buffer.
# Then, 50 µL of 50 times diluted Streptavidin-HRP with blocking buffer was added to each well, and the strips were further incubated at room temperature for 30 min. After washing the wells three times with 200 µL of PBST buffer, HRP colorimetric substrate was added to each well, and the plate was incubated at room temperature until a blue color was developed in the positive control well. Then, the reaction was quenched with 100 µL per well of 2 M sulfuric acid. Carrier solvent (DMSO 5%, v/v) was used as a negative control. All compounds including Ol ap arib were t ested at 5 concentrations (100, 10, 1, 0.1, and 0.01 µM). The optical density (OD) of each well was measured spectrophotometrically at 450 nm with an ELISA microplate reader (ChroMate-4300, FL, USA). The IC50 values were calculated according to the equation for Boltzmann sigmoidal concentration-response curves using the nonlin ear regression fitting model (GraphPad Prism Version 8). All assays were performed in triplicate in 3 repeated experiments. The obtained data are presented as means standard error of the means from 3 independent repeats (n = 3).
# 4.3.In vitro anticancer screening
# The cell lines were purchased from the American Type Culture collection as follows:
# Breast Cancer cell lines (MDA-MB-436) and WI38. Cytotoxic activity screening was performed using MTT assay. Exponentially, cells were placed in 10^4 cells/ well for 24 h, and then add fresh med ium containing different concen trations of the tested sample. Serial two-fold dilutions of the tested sample were added using a multichannel pipette. Moreover, all cells were cultivated at 37 °C, with 5% CO2 and 95% humidity. Also, incubation of control cells occurred at 3 7 ° C . […] Rinse the wells using water until no stain. After that, add 30% g lacial acetic acid to all wells with shaking plates on a Microplate reader (TECAN, Inc.) to measure the absorbance, using a test wavelength of 490 nm. Besides, compare the treated samples with the control cell. The cytotoxicity was estimated by IC50 in (μg /mL), the concentration that inhibits 50% of the growth of the examined cell.
# PARP-1 = biological target: T1, PARP-1 (Homo sapiens, UniProt P09874); assay: colorimetric 96-well PARP-1 assay kit (BPS Bioscience); assay type: biochemical; settings: for IC50: read-out: IC50 (mean ± SEM) PARP-1
# T1 construct: purchased BPS Bioscience 80580
# T1 sequence (P09874 whole entry): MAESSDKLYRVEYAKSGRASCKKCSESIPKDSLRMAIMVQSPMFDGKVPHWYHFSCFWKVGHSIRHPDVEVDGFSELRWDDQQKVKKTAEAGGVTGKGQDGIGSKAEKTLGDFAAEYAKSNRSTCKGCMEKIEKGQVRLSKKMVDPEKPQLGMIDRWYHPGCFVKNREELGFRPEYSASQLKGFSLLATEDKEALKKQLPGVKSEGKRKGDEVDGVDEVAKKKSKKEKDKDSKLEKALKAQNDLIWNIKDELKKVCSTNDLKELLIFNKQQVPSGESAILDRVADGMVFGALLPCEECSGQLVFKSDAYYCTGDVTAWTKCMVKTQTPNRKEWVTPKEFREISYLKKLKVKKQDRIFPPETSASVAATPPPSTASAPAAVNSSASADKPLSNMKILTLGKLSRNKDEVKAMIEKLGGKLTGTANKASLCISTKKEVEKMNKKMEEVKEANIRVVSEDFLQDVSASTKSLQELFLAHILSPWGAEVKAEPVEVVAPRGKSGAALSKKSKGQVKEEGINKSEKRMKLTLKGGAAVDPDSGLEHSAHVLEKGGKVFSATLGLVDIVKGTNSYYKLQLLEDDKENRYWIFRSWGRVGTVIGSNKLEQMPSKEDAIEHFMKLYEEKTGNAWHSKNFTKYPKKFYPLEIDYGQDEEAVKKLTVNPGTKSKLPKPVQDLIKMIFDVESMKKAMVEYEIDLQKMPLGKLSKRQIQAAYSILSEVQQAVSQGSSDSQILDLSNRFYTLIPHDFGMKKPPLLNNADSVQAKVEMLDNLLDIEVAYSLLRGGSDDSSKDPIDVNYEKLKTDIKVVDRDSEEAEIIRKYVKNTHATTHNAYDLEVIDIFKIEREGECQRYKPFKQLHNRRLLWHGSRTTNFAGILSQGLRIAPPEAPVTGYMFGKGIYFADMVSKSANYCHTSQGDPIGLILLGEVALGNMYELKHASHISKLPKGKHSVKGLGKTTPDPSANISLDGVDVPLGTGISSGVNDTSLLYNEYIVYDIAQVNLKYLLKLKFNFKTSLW
# MDA-MB-436 = assay: in vitro cytotoxicity, MTT assay, MDA-MB-436; settings: for SI: MDA-MB-436, matches IC50 WI-38 / IC50 MDA-MB-436; for % viability MDA-MB-436: MTT lab report; for IC50: read-out: IC50 (mean ± SEM) MDA-MB-436, mutant BRCA1 breast cancer cells, MTT
# MDA-MB-436 cells [1] = assay: Annexin V-FITC/PI apoptosis assay, flow cytometry; settings: IC50 concentration, 48 h
# Description: medium was used as a negative control.
# (§1) Mean net fluorescent intensities (NFI) were quantified.
# MDA-MB-436 cells [2] = assay: Cyto-ID autophagy assay, flow cytometry; settings: IC50 value of compound, 24 h
# Description: medium was used as a negative control.
# as §1
# MDA-MB-436 cells [3] = assay: cell cycle analysis, PI staining, flow cytometry; settings: IC50 concentration 2.57 µM, 48 h
# Description: medium was used as a negative control.
# as §1
Compound,IC50 (WI-38),fold higher PARP-1 inhibitory activity than Olaparib (PARP-1; ratio of IC50 values),IC50 (PARP-1),SI (MDA-MB-436),% viability MDA-MB-436 (MDA-MB-436; log conc. 0.193 (1.6uM)),% viability MDA-MB-436 (MDA-MB-436; log conc. 0.796 (6.3uM)),% viability MDA-MB-436 (MDA-MB-436; log conc. 1.398 (25uM)),% viability MDA-MB-436 (MDA-MB-436; log conc. 2 (100uM)),% viability MDA-MB-436 (MDA-MB-436; log conc. -0.409 (0.4uM)),IC50 (MDA-MB-436),melting point,further results
"COc1ccc(NC(=S)NNS(=O)(=O)c2ccc3[nH]c(=O)c(=O)[nH]c3c2)cc1 [Compound 8a, 2-((2,3-Dioxo-1,2,3,4-tetrahydroquinoxalin-6-yl)sulfonyl)-N-(4-methoxyphenyl) Hydrazine-1-carbothioamide]",70.46 ± 0.43 µM,~2 fold,0.00231 ± 0.0003 µM,6.58,61.23%,53.52%,43.91%,35.79%,73.41%,10.7 ± 0.63 µM,,
"Cc1cc(C)n(S(=O)(=O)c2ccc3[nH]c(=O)c(=O)[nH]c3c2)n1 [Compound 5, 6-((3,5-Dimethyl-1H-pyrazol-1-yl)sulfonyl)-1,4-dihydroquinoxaline-2,3-dione]",81.7 ± 1.7 µM,1.5 fold,0.00305 ± 0.00016 µM,31.77,53.46%,45.17%,37.05%,28.36%,60.26%,2.57 ± 0.15 µM,,"normal intact cells (Q2-3) (MDA-MB-436 cells [1]): 96.98%; early apoptotic cell population (Q2-4) (MDA-MB-436 cells [1]; control 0.14%): 0.27%; late apoptotic cell population (Q2-2) (MDA-MB-436 cells [1]; control 0.98%): 1.02%; necrotic cell population (Q2-1) (MDA-MB-436 cells [1]; control 1.11%): 1.72%; times more potent than the reference drug (antiproliferative, MDA-MB-436) (MDA-MB-436; versus Olaparib): approximately 4 times; increase of autophagic cell death (MDA-MB-436 cells [2]): 68.65%; cell number in sub-G1 stage (MDA-MB-436 cells [3]; control 1.76%): 1.66%; percentage of cells in G2 stage (MDA-MB-436 cells [3]; control 25.12%): 30.39%; cell distribution in G1 phase (MDA-MB-436 cells [3]; control 51.96%): 40.89%"
"CC(=O)c1sc(=NNS(=O)(=O)c2ccc3[nH]c(=O)c(=O)[nH]c3c2)n(C(=O)c2ccccc2)c1C [Compound 11b, N’-(5-acetyl-3-benzoyl-4-methylthiazol-2(3H)-ylidene)-2,3-dioxo-1,2,3,4-tetrahydro Quinoxaline-6-sulfonohydrazide]",80.1 ± 0.82 µM,,0.00825 ± 0.00042 µM,6.96,62.03%,55.11%,44.77%,35.26%,73.47%,11.5 ± 0.67 µM,,
"Cc1csc(=NNS(=O)(=O)c2ccc3[nH]c(=O)c(=O)[nH]c3c2)n1C(=O)c1ccccc1 [Compound 10b, N’-(3-benzoyl-4-methylthiazol-2(3H)-ylidene)-2,3-dioxo-1,2,3,4-tetrahydroquinoxaline-6-sulfonohydrazide]",75.66 ± 0.51 µM,,0.00635 ± 0.00032 µM,7.86,65.24%,52.38%,43.29%,32.38%,72.68%,9.62 ± 0.56 µM,,
"COc1ccc(-n2c(C)c(C(C)=O)sc2=NNS(=O)(=O)c2ccc3[nH]c(=O)c(=O)[nH]c3c2)cc1 [Compound 11a, N’-(5-acetyl-3-(4-methoxyphenyl)-4-methylthiazol-2(3H)-ylidene)-2,3-dioxo-1,2,3,4-tetrahydroquinoxaline-6-sulfonohydrazide]",,,0.0194 ± 0.00099 µM,,,,,,,,185 to 187 °C,
"O=C(NC(=S)NNS(=O)(=O)c1ccc2[nH]c(=O)c(=O)[nH]c2c1)c1ccccc1 [Compound 8b, N-(2-((2,3-dioxo-1,2,3,4-tetrahydroquinoxalin-6-yl)sulfonyl)hydrazine-1-carbonothioyl)benzamide]",,,0.0111 ± 0.00056 µM,,,,,,,,265 to 267 °C,fold less PARP-1 inhibitory activity than reference drug Olaparib (PARP-1; ratio of IC50 values): 2.5 fold
